Data from BindingDB's records for doi:10.7270/Q2668BKB (The Scripps Research Institute Molecular Screening Center, 2009).

Molecular target: T1, 2'-phosphotransferase (Candida albicans (strain SC5314 / ATCC MYA-2876), UniProt Q5A7N4)
T1 sequence (Q5A7N4 whole entry): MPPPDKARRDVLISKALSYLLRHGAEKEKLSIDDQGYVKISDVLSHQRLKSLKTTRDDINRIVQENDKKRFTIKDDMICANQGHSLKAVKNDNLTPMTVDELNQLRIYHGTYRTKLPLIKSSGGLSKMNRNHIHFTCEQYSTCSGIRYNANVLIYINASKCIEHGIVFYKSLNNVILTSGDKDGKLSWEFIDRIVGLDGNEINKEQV
Assay: inhibition of Candida TPT1 enzyme activity – biochemical, fluorescence polarization, dose response (AID 2160)

IC50: > 55.7 µM
Structure (SMILES): Cc1ccc2nc(N=NCc3ccc([N+](=O)[O-])o3)nc(-c3ccccc3)c2c1
